Test results: ChEMBL document CHEMBL1201862, “PubChem BioAssay data set” (2004)
Each block holds one compound with its values, some of them ahead of it. The source made the active and inactive calls. For most assays here, no stated cut-off is given here; in the data, actives have a measured EC50 and inactives only a lower limit.

Key:
[1] = target: ATP-dependent molecular chaperone HSP82 (Candida albicans (strain WO-1) (Yeast), UniProt C4YTQ8); test: loss of DOC-induced GRE-beta-galactosidase reporter signal, dose response, Hsp90 inhibitor project, S. cerevisiae, luminescence (AID 2400); type: functional, cell-based;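 further: beta-galactosidase luminescence from glucocorticoid response element reporter as proxy for Hsp90 function; inhibitor potency where signal loss means Hsp90 inhibition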
[2] = target: T1, Exodeoxyribonuclease V (Escherichia coli (strain K12), UniProt P04993+P07648+P08394); test: E. coli RecBCD inhibitors, dose response, counter-screen for AddAB inhibitor project, absorbance, V66 E. coli, mutant T4 phage (AID 492957); type: functional, cell-based, Escherichia coli str. K-12 substr. MG1655
T1 sequence (P04993 whole entry): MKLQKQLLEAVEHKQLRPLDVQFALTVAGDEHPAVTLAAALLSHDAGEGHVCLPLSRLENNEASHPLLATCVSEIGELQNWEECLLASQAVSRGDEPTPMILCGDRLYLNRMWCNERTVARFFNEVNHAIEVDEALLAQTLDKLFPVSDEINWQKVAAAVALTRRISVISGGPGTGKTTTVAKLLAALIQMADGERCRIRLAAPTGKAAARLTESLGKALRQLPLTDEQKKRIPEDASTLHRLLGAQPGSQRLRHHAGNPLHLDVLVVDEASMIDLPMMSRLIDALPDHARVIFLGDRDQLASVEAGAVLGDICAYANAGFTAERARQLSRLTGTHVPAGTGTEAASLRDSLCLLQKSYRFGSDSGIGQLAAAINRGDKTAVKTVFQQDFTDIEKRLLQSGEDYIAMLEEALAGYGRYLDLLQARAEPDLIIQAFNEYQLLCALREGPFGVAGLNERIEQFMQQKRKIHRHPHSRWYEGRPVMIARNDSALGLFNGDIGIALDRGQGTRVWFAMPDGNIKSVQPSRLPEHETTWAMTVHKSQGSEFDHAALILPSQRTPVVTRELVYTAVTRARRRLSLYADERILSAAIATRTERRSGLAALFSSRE
T1 sequence (P07648 whole entry): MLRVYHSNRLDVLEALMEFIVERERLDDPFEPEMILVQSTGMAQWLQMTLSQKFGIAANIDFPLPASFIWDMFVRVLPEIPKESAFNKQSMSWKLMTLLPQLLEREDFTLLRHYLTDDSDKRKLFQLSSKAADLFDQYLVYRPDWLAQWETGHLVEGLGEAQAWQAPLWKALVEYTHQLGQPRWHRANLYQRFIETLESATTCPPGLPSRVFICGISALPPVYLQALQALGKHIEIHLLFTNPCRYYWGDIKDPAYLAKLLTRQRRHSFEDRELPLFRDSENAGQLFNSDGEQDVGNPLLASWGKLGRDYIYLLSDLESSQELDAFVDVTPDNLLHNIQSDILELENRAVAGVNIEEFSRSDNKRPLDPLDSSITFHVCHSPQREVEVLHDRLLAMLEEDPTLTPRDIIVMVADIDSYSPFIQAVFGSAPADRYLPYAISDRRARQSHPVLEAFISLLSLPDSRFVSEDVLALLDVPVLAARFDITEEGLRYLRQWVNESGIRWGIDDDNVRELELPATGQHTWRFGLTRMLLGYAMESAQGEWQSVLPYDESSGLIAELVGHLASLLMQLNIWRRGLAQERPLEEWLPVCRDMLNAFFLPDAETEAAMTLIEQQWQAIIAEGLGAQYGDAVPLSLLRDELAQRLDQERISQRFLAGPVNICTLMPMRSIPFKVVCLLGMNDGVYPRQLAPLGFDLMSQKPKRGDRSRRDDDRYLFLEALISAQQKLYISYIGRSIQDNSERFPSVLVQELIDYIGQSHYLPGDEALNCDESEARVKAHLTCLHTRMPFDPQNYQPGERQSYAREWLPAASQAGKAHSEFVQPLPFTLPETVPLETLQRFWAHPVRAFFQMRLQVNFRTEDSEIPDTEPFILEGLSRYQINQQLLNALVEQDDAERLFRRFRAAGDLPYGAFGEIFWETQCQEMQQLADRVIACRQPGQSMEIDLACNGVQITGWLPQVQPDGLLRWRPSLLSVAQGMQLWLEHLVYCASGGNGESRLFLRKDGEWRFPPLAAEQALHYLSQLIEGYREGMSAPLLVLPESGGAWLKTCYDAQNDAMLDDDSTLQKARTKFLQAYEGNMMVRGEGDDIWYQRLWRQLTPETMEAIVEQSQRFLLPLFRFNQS
T1 sequence (P08394 whole entry): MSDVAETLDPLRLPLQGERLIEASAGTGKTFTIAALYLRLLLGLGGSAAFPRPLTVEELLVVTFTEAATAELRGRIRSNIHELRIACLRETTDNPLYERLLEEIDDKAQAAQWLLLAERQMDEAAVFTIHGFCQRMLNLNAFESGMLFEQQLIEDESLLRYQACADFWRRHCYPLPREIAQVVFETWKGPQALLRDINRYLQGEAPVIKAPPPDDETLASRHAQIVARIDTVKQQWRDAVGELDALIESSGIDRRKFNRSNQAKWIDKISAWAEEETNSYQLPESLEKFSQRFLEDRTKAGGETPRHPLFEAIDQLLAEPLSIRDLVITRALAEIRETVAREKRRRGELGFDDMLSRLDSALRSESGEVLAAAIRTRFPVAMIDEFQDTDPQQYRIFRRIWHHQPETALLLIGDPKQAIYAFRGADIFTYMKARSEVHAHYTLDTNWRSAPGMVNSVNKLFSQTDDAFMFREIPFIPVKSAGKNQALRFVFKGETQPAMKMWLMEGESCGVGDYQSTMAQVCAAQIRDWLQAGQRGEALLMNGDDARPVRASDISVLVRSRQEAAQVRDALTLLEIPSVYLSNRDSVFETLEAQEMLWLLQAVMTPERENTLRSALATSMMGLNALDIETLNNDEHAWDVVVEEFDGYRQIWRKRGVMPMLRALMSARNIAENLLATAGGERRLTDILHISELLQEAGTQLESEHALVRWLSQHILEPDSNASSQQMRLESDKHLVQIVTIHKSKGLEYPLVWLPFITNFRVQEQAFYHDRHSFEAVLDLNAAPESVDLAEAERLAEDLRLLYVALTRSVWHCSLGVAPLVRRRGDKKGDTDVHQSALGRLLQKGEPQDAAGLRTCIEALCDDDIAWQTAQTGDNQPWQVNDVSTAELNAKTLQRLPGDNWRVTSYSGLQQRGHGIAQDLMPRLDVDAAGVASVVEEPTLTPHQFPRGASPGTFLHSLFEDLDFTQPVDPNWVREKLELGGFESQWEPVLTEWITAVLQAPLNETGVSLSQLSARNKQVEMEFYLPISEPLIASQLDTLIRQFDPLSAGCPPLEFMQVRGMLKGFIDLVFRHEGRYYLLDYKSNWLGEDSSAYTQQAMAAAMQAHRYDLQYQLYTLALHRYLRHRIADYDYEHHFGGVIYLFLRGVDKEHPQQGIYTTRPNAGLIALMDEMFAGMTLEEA

[3] = NIH-3T3 fibroblast cytotoxicity, dose response, cytotoxicity control, cell-based, fluorescence, Alamar Blue, secondary assay (AID 2327); type: functional;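 further: NIH-3T3 mouse fibroblasts cultured with fluconazole at 8 µg/mL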
[4] = C. albicans growth with fluconazole, confirmation, fluorescence, retest (AID 2467); type: functional, cell-based
[5] = Counterscreen for AddAB inhibitors: absorbance-based bacterial cell-based high throughput dose response assay for inhibitors of bacterial viability. [Related pubchem assays (depositor defined):AID435030, AID449728, AID449731, AID488942, AID488955, AID488956]; type: functional
[6] = target: T2, Serine/threonine-protein phosphatase (Candida dubliniensis (strain CD36 / CBS 7987 / NCPF 3949 / NRRLY-17841) (Yeast), UniProt B9W6M3); test: calcineurin pathway inhibitors in yeast reporter, dose response, S. cerevisiae, CDRE-lacZ, luminescence, secondary (AID 2388); type: functional, cell-based;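 further: yeast reporter cells carrying a calcineurin-responsive lacZ construct stimulated with calcium chloride; luminescent beta-galactosidase reporter signal in whole cells rather than isolated phosphatase activity; potency for inhibition where a drop in reporter signal means calcineurin blockade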
T2 sequence (B9W6M3 whole entry): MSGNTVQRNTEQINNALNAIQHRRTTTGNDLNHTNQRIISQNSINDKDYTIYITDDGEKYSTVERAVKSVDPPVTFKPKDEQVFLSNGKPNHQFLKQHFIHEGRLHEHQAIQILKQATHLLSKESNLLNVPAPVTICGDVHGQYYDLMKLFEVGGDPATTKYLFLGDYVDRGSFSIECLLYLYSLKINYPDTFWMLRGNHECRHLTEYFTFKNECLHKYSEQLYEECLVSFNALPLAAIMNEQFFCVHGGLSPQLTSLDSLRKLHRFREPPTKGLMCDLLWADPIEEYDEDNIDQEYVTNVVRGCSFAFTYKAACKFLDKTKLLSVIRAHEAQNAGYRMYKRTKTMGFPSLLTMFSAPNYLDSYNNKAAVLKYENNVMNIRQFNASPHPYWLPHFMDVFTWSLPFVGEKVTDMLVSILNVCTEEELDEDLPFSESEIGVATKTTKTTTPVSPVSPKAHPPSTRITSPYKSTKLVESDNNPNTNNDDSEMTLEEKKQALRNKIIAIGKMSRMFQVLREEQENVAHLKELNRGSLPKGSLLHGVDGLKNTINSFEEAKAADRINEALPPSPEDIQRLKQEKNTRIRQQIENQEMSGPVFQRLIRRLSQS

[7] = target: T3, Apoptotic protease-activating factor 1 (Homo sapiens, UniProt O14727); type: functional
T3 sequence (O14727 whole entry): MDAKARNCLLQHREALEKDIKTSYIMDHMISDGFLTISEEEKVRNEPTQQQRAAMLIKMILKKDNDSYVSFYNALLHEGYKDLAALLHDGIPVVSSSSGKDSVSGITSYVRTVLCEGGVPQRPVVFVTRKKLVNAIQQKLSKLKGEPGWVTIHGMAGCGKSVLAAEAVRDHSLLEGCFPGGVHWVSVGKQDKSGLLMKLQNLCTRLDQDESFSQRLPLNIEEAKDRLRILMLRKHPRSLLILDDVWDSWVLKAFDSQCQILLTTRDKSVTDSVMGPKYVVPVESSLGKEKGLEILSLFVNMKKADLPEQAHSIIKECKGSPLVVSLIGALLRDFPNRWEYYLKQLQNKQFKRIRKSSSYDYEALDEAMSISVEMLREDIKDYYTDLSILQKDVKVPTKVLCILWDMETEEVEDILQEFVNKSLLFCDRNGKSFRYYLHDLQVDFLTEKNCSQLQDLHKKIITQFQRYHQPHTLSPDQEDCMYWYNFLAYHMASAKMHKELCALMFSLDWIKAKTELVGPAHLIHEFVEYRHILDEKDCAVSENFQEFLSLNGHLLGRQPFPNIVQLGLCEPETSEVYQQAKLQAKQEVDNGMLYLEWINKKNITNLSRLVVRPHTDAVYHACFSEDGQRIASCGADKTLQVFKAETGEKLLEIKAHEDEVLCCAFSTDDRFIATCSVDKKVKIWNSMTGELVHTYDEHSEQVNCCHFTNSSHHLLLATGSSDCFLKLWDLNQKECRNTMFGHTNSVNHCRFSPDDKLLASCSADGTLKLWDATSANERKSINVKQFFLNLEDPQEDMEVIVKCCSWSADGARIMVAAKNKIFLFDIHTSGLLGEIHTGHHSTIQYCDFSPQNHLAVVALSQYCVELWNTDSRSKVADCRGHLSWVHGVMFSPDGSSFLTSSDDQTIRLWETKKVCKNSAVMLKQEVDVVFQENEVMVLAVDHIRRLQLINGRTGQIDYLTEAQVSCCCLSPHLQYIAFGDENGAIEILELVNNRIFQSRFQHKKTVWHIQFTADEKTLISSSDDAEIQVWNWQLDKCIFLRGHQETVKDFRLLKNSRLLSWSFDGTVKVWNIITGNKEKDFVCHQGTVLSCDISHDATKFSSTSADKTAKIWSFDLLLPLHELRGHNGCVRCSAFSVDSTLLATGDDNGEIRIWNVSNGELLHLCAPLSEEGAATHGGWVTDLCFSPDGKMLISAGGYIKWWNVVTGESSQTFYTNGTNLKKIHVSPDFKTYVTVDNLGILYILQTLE

Chain of ATP-dependent molecular chaperone HSP82 (C4YTQ8 whole entry): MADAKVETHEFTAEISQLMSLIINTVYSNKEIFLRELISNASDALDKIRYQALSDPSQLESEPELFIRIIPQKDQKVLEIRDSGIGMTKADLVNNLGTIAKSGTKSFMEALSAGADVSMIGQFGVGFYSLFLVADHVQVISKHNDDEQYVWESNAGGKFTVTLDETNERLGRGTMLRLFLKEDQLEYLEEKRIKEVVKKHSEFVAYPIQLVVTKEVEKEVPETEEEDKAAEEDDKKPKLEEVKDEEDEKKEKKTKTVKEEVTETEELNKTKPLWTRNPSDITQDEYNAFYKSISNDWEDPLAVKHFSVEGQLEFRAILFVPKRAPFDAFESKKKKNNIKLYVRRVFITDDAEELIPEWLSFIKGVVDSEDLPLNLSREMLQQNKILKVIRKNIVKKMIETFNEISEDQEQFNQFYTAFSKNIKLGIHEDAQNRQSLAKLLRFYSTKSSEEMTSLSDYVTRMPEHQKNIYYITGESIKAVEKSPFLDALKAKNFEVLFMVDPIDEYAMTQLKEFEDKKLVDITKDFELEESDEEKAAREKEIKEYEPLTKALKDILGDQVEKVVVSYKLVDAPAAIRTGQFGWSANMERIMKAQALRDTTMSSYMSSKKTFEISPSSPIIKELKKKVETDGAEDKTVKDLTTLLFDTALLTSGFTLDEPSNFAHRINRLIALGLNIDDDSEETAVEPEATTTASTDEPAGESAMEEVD

Compound: CC(=O)NC1CCCN(O)C(=O)/C=C(\C)CCOC(=O)C(NC(C)=O)CCCN(O)C(=O)/C=C(\C)CCOC(=O)C(NC(C)=O)CCCN(O)C(=O)/C=C(\C)CCOC1=O (configuration not stated)
EC50 [1]: > 160 µM (inactive)
IC50 [2]: > 119 µM (inactive)
EC50 [3]: > 160 µM (inactive)
EC50 [4]: 0.742 µM (active)
IC50 [5]: > 119 µM (inactive)
EC50 [6]: > 180 µM (inactive)

IC50 [7]: 43.7 µM (active)
Compound: COc1ccc(CC(=O)N(Cc2ccccc2)c2ccc(C)cc2)cc1S(=O)(=O)N1CCOCC1
